The results in this text go back to patent US12649723B2, “Carbonohydrazonoyl dicyanide compounds comprising 2 or more aryl or heteroaryl connected via linker and use thereof” (KOREA INSTITUTE OF SCIENCE AND TECHNOLOGY, priority 2020, dated 2026).

In one data set the target is T1, tau protein (Homo sapiens, UniProt P10636).
T1 construct: fused on or other part: Split fluorescent-protein halves for BiFC are fused to tau; In the published tau-BiFC line these are Venus VN173 and VC155
Briefly: Tau-BiFC cell model: inhibition of tau protein aggregation. It counts as cell-based. As to conditions: for remaining activity at 10 µM / remaining activity at 3 µM: 48 h, Forskolin-only group = 100% tau protein-aggregated state; for remaining activity at 10 µM: compound 10 μM, BiFC fluorescence, read-out: Response (% @10 μM); for IC50: Tau BiFC in cells, with Forskolin 30 μM, 48 hours; for remaining activity at 3 µM: compounds marked *: measured at 3 μM, read-out: Response. The method, then: (§1) In order to select novel tau protein aggregation-inhibiting substances, tau-BiFC cell model, in which formation of tau oligomers in living cells is easily observed, was used. Tau-BiFC cells were aliquoted into a 384-well plate. On the next day, the cells were treated with each of the compounds prepared according to Examples 1 to 175 at concentrations of 1 μM, 3 μM, and 10 μM, together with Forskolin (at a treatment concentration of 30 μM), which is a compound inducing tau protein aggregation by activating tau […] PKA. After 48 hours, nuclei in the cells were stained using Hoechst (at a treatment concentration of 2 μg/mL), and BiFC fluorescence intensity was automatically measured using Operetta (PerkinElmer) to count stained nuclei in each well out of the entire well plate. The group treated only with Forskolin, which induces tau protein aggregation, was set to a reference point of a 100% tau protein-aggregated state, and the effects of the compounds were confirmed using the equation “BiFC fluorescence intensity due to compound synthesized according to embodiment of present invention/(fluorescence intensity of control group treated only with Forskolin inducing tau protein aggregation−fluorescence intensity of untreated control group)×100”. Furthermore, the degree of cytotoxicity induced by the newly synthesized compound was also measured based on the 100% cell viability of the group treated only with Forskolin as a reference, and the cytotoxicity value of each compound was calculated using the equation “(number of stained nuclei in group treated with compound/number of stained nuclei in group treated with Forskolin)×100”. Based on the treatment results, substances inhibiting intracellular tau protein aggregation were selected from a series of candidate groups showing a tau protein aggregation inhibition rate of 70% or more and cell viability of 100% at a compound treatment concentration of 10 μM or more.
(§2) In order to evaluate dose-dependent tau protein aggregation inhibition effects of the compounds selected according to Experimental Example 1 on tau protein aggregation, tau-BiFC cells were treated with the selected compounds at concentrations of 0.03 μM, […], 0.3 μM, 1 μM, 3 μM, 10 μM, and 30 μM, respectively, together with Forskolin (at a treatment concentration of 30 μM), which is a tau protein aggregation inducing substance. After 48 hours, tau protein aggregation reaction and degrees of cytotoxicity were analyzed by observing images of the cells. IC50 and toxicity of the compounds were analyzed by way of nonlinear regression analysis of prism software (Graph Pad).

The test system of the next data set is Tau-BiFC cells. Put plainly: Cell viability (cytotoxicity) in tau-BiFC cells, count of stained nuclei. The note with it: Forskolin-only group = 100% cell viability; for Cell viability (% @10 μM): compound 10 μM; for Cell viability: compounds marked *: measured at 3 μM. It counts as cell-based. As to the method:
as §1, §2

SMILES strings stand for the structures.

A word on the IC50: it is the point on the concentration scale where inhibition reaches its midpoint.

T1 sequence (P10636 2-441 isoform P10636-8 limits assumed): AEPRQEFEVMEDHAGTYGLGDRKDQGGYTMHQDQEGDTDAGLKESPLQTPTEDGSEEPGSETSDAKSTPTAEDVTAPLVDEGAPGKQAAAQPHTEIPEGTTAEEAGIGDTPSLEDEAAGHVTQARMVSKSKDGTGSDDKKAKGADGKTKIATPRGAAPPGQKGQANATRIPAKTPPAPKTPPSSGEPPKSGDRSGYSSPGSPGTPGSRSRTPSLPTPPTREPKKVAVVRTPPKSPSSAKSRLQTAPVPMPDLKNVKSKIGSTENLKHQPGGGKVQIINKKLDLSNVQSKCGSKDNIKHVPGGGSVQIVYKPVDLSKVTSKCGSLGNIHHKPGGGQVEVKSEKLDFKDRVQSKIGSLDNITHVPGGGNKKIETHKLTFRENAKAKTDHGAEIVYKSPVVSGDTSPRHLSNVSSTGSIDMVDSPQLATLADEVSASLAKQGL

In the case of `Cc1cnc(C(=O)Nc2cc(C)c(NN=C(C#N)C#N)cn2)cn1` [Compound 13, (4-methyl-6-(5-methylpyrazine-2-carboxamido)pyridin-3-yl)carbonohydrazonoyl dicyanide], at tau protein, the remaining activity at 10 µM stood at 30% and inhibition was half-maximal at 550 nM (IC50). Further, the “Cell viability (% @10 μM)” value in the data set with Tau-BiFC cells is on record as 110%.
On to `N#CC(C#N)=NNc1ccc(C(=O)Nc2ncccn2)nc1` [Compound 43, (6-(pyrimidin-2-ylcarbamoyl)pyridin-3-yl)carbonohydrazonoyl dicyanide], for which, at tau protein, the remaining activity at 10 µM worked out at 3%. Moreover, in the data set on Tau-BiFC cells, the “Cell viability (% @10 μM)” value amounted to 168.6%.
The corresponding values for `N#CC(C#N)=NNc1ccc(C(=O)Nc2cncnc2)cc1` [Compound 50, (4-(pyrimidin-5-ylcarbamoyl)phenyl)carbonohydrazonoyl dicyanide] are 86.6% and 116.4%.
For `Cc1cnc(C(=O)Nc2ccc(NN=C(C#N)C#N)c(Cl)c2)cn1` [Compound 5, (2-chloro-4-(5-methylpyrazine-2-carboxamido)phenyl)carbonohydrazonoyl dicyanide], in that order: 14.5% and 61.2%.
With `N#CC(C#N)=NNc1ccc(OCc2nc3ccccc3o2)cc1` [Compound 128, (4-(benzo[d]oxazol-2-ylmethoxy)phenyl)carbonohydrazonoyl dicyanide], at tau protein, the remaining activity at 10 µM came out at 0% and the IC50 was found to be 300 nM. Further, the “Cell viability (% @10 μM)” value in the data set on Tau-BiFC cells stood at 108.5%.
As to `Cc1cc(NN=C(C#N)C#N)ccc1Oc1cncnc1` [Compound 81, (3-methyl-4-(pyrimidin-5-yloxy)phenyl)carbonohydrazonoyl dicyanide], on tau protein, the remaining activity at 10 µM amounted to 0% and the IC50 was 550 nM. Besides, in the data set with Tau-BiFC cells, the “Cell viability (% @10 μM)” value amounted to 116.2%.
As for `Cc1ccc(NC(=O)c2ccc(NN=C(C#N)C#N)cc2)cn1` [Compound 47, (4-(6-methylpyridin-3-ylcarbamoyl)phenyl)carbonohydrazonoyl dicyanide], on tau protein, the remaining activity at 10 µM turned out to be 0% and the IC50 was 2580 nM. For the same compound, in the data set with Tau-BiFC cells, the “Cell viability (% @10 μM)” value was 122.7%.
Consider `COc1cc(NN=C(C#N)C#N)ccc1OCc1ncccn1` [Compound 161, (3-methoxy-4-(pyrimidin-2-ylmethoxy)phenyl)carbonohydrazonoyl dicyanide], for which, at tau protein, the remaining activity at 3 µM was -17% and half-maximal inhibition (IC50) was put at 109 nM. The Cell viability in the data set with Tau-BiFC cells was 119%.
As to `COc1cc(NN=C(C#N)C#N)ccc1C(=O)Nc1ccc(C)cc1` [Compound 108, (3-methoxy-4-(p-tolylcarbamoyl)phenyl)carbonohydrazonoyl Dicyanide], on tau protein, the remaining activity at 10 µM is 0% and the midpoint of inhibition, the IC50, lay at 1400 nM. Besides, in the data set with Tau-BiFC cells, the “Cell viability (% @10 μM)” value was determined as 121.8%.
Consider `N#CC(C#N)=NNc1ccc(C(=O)Nc2cccnc2)cc1` [Compound 49, (4-(pyridin-3-ylcarbamoyl)phenyl)carbonohydrazonoyl dicyanide], for which the remaining activity at 10 µM at tau protein worked out at 75.9%. Besides, in the data set with Tau-BiFC cells, the “Cell viability (% @10 μM)” value is given as 117.2%.
The corresponding values for `N#CC(C#N)=NNc1ccc(OCCc2ccc(Cl)cc2)c(C(F)(F)F)c1` [Compound 133, (4-(4-chlorophenethoxy)-3-(trifluoromethyl)phenyl)carbonohydrazonoyl dicyanide] are 0% and 39.7%.
With `COc1cc(C(=O)Nc2ccc(C)nc2)ccc1NN=C(C#N)C#N` [Compound 57, (2-methoxy-4-(6-methylpyridin-3-ylcarbamoyl)phenyl)carbonohydrazonoyl dicyanide], the remaining activity at 10 µM at tau protein was found to be 51.7%. Also, the “Cell viability (% @10 μM)” value with Tau-BiFC cells is 108.6%.
As for `Cc1cc(C(=O)Nc2ccc(NN=C(C#N)C#N)cn2)ccc1F` [Compound 21, (6-(4-fluoro-3-methylbenzamido)pyridin-3-yl)carbonohydrazonoyl dicyanide], on tau protein, the remaining activity at 10 µM was 0% and inhibition was half-maximal at 750 nM (IC50). Also, in the data set with Tau-BiFC cells, the “Cell viability (% @10 μM)” value is listed as 104.3%.
For the compound `COc1cc(NN=C(C#N)C#N)ccc1OCc1cscn1` [Compound 167, (3-methoxy-4-(thiazol-4-ylmethoxy)phenyl)carbonohydrazonoyl dicyanide], at tau protein, the remaining activity at 3 µM is -38% and the IC50 was found to be 10 nM. Besides, the Cell viability in the data set with Tau-BiFC cells worked out at 118%.
As to `N#CC(C#N)=NNc1ccc(Oc2cnccn2)cc1` [Compound 84, (4-(pyrazin-2-yloxy)phenyl)carbonohydrazonoyl dicyanide], at tau protein, the remaining activity at 10 µM came to 0% and 2120 nM corresponded to half-maximal inhibition (IC50). For the same compound, the “Cell viability (% @10 μM)” value in the data set on Tau-BiFC cells is 111.4%.
Turning to `COc1cc(C(=O)Nc2cnc(C)cn2)ccc1NN=C(C#N)C#N` [Compound 51, (2-methoxy-4-(5-methylpyrazin-2-ylcarbamoyl)phenyl)carbonohydrazonoyl dicyanide], the remaining activity at 10 µM at tau protein is 45.4%. The “Cell viability (% @10 μM)” value in the data set on Tau-BiFC cells is recorded as 107.1%.
Regarding `Cc1ccccc1C(=O)Nc1ccc(NN=C(C#N)C#N)cn1` [Compound 25, (6-(2-methylbenzamido)pyridin-3-yl)carbonohydrazonoyl dicyanide], at tau protein, the remaining activity at 10 µM was 0% and the IC50 amounted to 390 nM. The “Cell viability (% @10 μM)” value with Tau-BiFC cells came to 122.4%.
Regarding `Cc1cc(NN=C(C#N)C#N)ccc1Oc1ccncc1` [Compound 79, (3-methyl-4-(pyridin-4-yloxy)phenyl)carbonohydrazonoyl dicyanide], the remaining activity at 10 µM on tau protein amounted to 65.9%. Further, the “Cell viability (% @10 μM)” value in the data set with Tau-BiFC cells was found to be 115.7%.
For the compound `COc1cc(NN=C(C#N)C#N)ccc1C(=O)Nc1cncc(C)c1` [Compound 107, (3-methoxy-4-(5-methylpyridin-3-ylcarbamoyl)phenyl)carbonohydrazonoyl dicyanide], at tau protein, the remaining activity at 10 µM turned out to be 0% and the IC50 turned out to be 600 nM. In the data set with Tau-BiFC cells, the “Cell viability (% @10 μM)” value worked out at 137.9%.
Regarding `CN(N=C(C#N)C#N)c1ccc(Oc2ccccc2)c(C(F)(F)F)c1` [Compound 78, methyl(4-phenoxy-3-(trifluoromethyl)phenyl)carbonohydrazonoyl dicyanide], on tau protein, the remaining activity at 10 µM came out at 69.6%. In addition, the “Cell viability (% @10 μM)” value with Tau-BiFC cells came to 74%.
With `N#CC(C#N)=NNc1ccc(OCc2cccnn2)cc1` [Compound 127, (4-(pyridazin-3-ylmethoxy)phenyl)carbonohydrazonoyl dicyanide], on tau protein, the remaining activity at 10 µM was 0% and the IC50 stood at 1200 nM. The “Cell viability (% @10 μM)” value in the data set on Tau-BiFC cells is reported as 134.9%.
For `N#CC(C#N)=NNc1ccc(Oc2cncnc2)c(F)c1` [Compound 82, (3-fluoro-4-(pyrimidin-5-yloxy)phenyl)carbonohydrazonoyl dicyanide], in that order: 0%, 2960 nM and 126.4%.
`Cc1ccc(COc2ccc(NN=C(C#N)C#N)cc2C)cc1` [Compound 142, (3-methyl-4-(4-methylbenzyloxy)phenyl)carbonohydrazonoyl dicyanide]: on tau protein, the remaining activity at 3 µM was -5% and half-maximal inhibition (IC50) required 1610 nM. The Cell viability with Tau-BiFC cells is 111%.
In the case of `Cc1ccc(NC(=O)c2ccc(NN=C(C#N)C#N)cn2)cc1` [Compound 34, (6-(p-tolylcarbamoyl)pyridin-3-yl)carbonohydrazonoyl dicyanide], at tau protein, the remaining activity at 10 µM was 76% and 9000 nM corresponded to half-maximal inhibition (IC50). The “Cell viability (% @10 μM)” value in the data set with Tau-BiFC cells was found to be 88.1%.
Take `CN(N=C(C#N)C#N)c1ccc(Oc2ccccc2)c(F)c1` [Compound 77, (3-fluoro-4-phenoxyphenyl)(methyl)carbonohydrazonoyl dicyanide]: the remaining activity at 10 µM at tau protein amounted to 84.8%. For the same compound, the “Cell viability (% @10 μM)” value in the data set on Tau-BiFC cells was determined as 91.6%.
`N#CC(C#N)=NNc1ccc(NC(=O)c2cocn2)nc1` [Compound 113, (6-(oxazole-4-carboxamido)pyridin-3-yl)carbonohydrazonoyl dicyanide]: on tau protein, the remaining activity at 10 µM amounted to 0% and the IC50 was 200 nM. Also, the “Cell viability (% @10 μM)” value in the data set on Tau-BiFC cells worked out at 147%.
For `Cc1ccc(NC(=O)c2ccc(NN=C(C#N)C#N)cc2C)cn1` [Compound 53, (3-methyl-4-(6-methylpyridin-3-ylcarbamoyl)phenyl)carbonohydrazonoyl dicyanide], on tau protein, the remaining activity at 10 µM came to 22.9%. In addition, the “Cell viability (% @10 μM)” value in the data set on Tau-BiFC cells came out at 116.1%.
